Read-outs that look alike come from different tables or passages of the source.
Experiments:
[1] = system: carrageenan-induced thermal hyperalgesia; experiment: rat carrageenan footpad thermal hyperalgesia assay (Hargreaves test); assay type: in vivo; details: gabapentin 10-100 mg/kg SC, carprofen 1-10 mg/kg SC, combination in fixed 10:1 ratio
Method: The aim of this experiment was to characterize the anti-nociceptive and anti-inflammatory effects of gabapentin administered in combination with carprofen in the rat. In this example, gabapentin, carprofen, and the combination of gabapentin and carprofen were evaluated in a standard rat carrageenan footpad thermal hyperalgesia assay. This assay utilizes an extract of seaweed (carrageenan) that, when injected into the footpad of test animals, causes a sterile inflammation, thereby lowering the pain threshold. […]
Each data point represents the mean and standard error of mean. […] The theoretical dose-additive line for a 10:1 dose ratio was determined (dotted line) as described (Tallarida, 1992). The experimental determination of a 10:1 dose ratio was determined (gabapentin-carprofen mixture 10:1) and a shift to the left of the theoretical dose-additive line was found. […]
Dose-effect curves were first determined for (1) gabapentin by itself and (2) carprofen by itself. The ED50 value of each agent was determined, as was the time to peak effect. […]
Carrageenan-induced thermal hyperalgesia: Rats were acclimated to a testing chamber whose glass floor was maintained at 25° C. One hour later, a high intensity beam of light was focused through the glass on the ventral surface of each hind paw, and the latency to reflex withdrawal of the paw from the light beam was measured to the nearest 0.1 second. […]

[2] = system: COX-2 isozyme compared to the COX-1 isozyme; details: cats; American Journal of Veterinary Research, 2001, 62, 11, 1755; cited from earlier work
[3] = system: COX-2 isozyme compared to the COX-1 isozyme; details: horses; American Journal of Veterinary Research, 2001, 62, 11, 1755; cited from earlier work
[4] = system: COX-2 isozyme compared to the COX-1 isozyme; details: dogs, cited from earlier work

SMILES | antihyperalgesic action (in words) [1] | selectivity for the COX-2 isozyme compared to the COX-1 isozyme [2] [fold] | selectivity for the COX-2 isozyme compared to the COX-1 isozyme [3] [fold] | selectivity for the COX-2 isozyme compared to the COX-1 isozyme ([4]; American Journal Veterinary Research, 2000, 61, 7, 802) [fold] | selectivity for the COX-2 isozyme compared to the COX-1 isozyme ([4]; American Journal Veterinary Research, 2002, 63, 1, 91) [fold] | selectivity for the COX-2 isozyme compared to the COX-1 isozyme ([4]; American Journal of Veterinary Research, 2001, 62, 11, 1755) [fold] | selectivity for the COX-2 isozyme compared to the COX-1 isozyme ([4]; WO 98/50033) [fold]
NCC1(CC(=O)O)CCCCC1 [gabapentin, 1-(aminomethyl)-cyclohexylacetic acid] | antihyperalgesic actions |  |  |  |  |  | 
CC(C(=O)O)c1ccc2c(c1)[nH]c1ccc(Cl)cc12 (stereo not drawn) [carprofen, 6-chloro-α-methyl-9H-carbazole-2-acetic acid] | antihyperalgesic actions | 5.5 | 1.6 | 1.75 | 16.8 | 6.5 | 129

Source: patent US20080269310A1, “Synergistic Combinations” (priority 2005, published 2008)
